The values that follow come from patent US20220370467A1, “USING OF A PPAR-DELTA AGONIST IN THE TREATMENT OF KIDNEY DISEASE” (Reneo Pharmaceuticals, Inc., priority 2019, published 2022).

For this assay, the system named is inbred 129S1 Col4a3−/− mice. Put plainly: Mouse Alport model of kidney fibrosis, Study 2. The assay is classed as in vivo. The text has this: Mice with mutations in one of the collagen IV genes of glomerular basement membrane collagen, Collagen IV-α3/α4/α5, have defects in glomerular function with development of kidney fibrosis. These mice develop renal dysfunction and die prematurely of renal failure with specific timing dependent on the strain background upon which the mutation is present.
Generation of Col4a3^−/−mice was as described in Miner, J. H., and Sanes, J. R. (1996), J. Cell Biol. 135:1403-1413. Studies of Compound 1 efficacy in Alport models of kidney fibrosis were performed using mice on two different strain backgrounds. Study 1 used B 6129S1 F1 hybrid Alport mice that usually reach end stage renal disease (ESRD) at about 17 to 19 weeks. These were generated by crosses between C57BL6/J (B 6) and 129S1/Sv1mJ (129S1) Alport mice. Study 2 used inbred 129S1 Col4a3^−/− mice, which usually reach ESRD at about 11 to 13 weeks. […]
Urine and blood samples were collected at the time points of 12, 15, and 17-weeks of age for B6129S1 hybrid Col4a3^+/−, −/− mice and at 8 and 10-weeks of age for inbred 129S1 Col4a3^−/− mice. Urinary protein concentration was determined by Bradford assay (Cat. 5000006, Bio-Rad) and comparison with bovine serum albumin standards. Urinary creatinine was measured by QuantiChrom™ Creatinine Assay Kit (Cat.DICT-500, BioAssay systems) and used to normalize the amount of urine. Blood urea nitrogen (BUN) levels were measured by QuantiChrom™ Urea Assay Kit (Cat.DUR2-100, BioAssay systems). Urine and blood samples were stored at −20° C. and −80° C. respectively after collection and subsequently analyzed.
For biochemistry, kidneys were collected from 15 and 17-week old B 6129S1 hybridCol4a3^+/−, −/− mice; and from 8 and 10-week old inbred 129S1 Col4a3^−/− mice. […] Protein concentration was measured by BCA assays (Cat. 23227, ThermoFisher). […]
All data are presented as mean±SEM. Statistical significance was determined by Oneway ANOVA with Dunnett's multiple comparison for more than three group comparison and Student's t test for two group comparison. […]

Where [1] appears, read: 3 or 10 mg/kg i.p. once a day, samples at 8 and 10-weeks of age, data not shown.

Turning to `Cc1cc(OC/C=C(/c2ccc(F)cc2)c2ccc(C#CCN3CCOCC3)cc2)ccc1OCC(=O)O` [Compound 1, (E)-[4-[3-(4-Fluorophenyl)-3-[4-[3-(morpholin-4-yl)propynyl]phenyl]allyloxy]-2-methyl-phenoxy]acetic acid], the kidney dysfunction entry (3 or 10 mg/kg i.p. once a day from 4 to 10-weeks of age) is recorded as “did not attenuate”. In addition, under setting [1], the BUN entry was “did not result in any significant reduction” and the proteinuria result was “did not result in any significant reduction”.
